Structures can show the parent of a compound that is named as a salt.
Molecular target: T1, human TRPC6 (Homo sapiens, UniProt Q9Y210)
T1 construct: expressed in transfected cells
T1 sequence (Q9Y210 1-931): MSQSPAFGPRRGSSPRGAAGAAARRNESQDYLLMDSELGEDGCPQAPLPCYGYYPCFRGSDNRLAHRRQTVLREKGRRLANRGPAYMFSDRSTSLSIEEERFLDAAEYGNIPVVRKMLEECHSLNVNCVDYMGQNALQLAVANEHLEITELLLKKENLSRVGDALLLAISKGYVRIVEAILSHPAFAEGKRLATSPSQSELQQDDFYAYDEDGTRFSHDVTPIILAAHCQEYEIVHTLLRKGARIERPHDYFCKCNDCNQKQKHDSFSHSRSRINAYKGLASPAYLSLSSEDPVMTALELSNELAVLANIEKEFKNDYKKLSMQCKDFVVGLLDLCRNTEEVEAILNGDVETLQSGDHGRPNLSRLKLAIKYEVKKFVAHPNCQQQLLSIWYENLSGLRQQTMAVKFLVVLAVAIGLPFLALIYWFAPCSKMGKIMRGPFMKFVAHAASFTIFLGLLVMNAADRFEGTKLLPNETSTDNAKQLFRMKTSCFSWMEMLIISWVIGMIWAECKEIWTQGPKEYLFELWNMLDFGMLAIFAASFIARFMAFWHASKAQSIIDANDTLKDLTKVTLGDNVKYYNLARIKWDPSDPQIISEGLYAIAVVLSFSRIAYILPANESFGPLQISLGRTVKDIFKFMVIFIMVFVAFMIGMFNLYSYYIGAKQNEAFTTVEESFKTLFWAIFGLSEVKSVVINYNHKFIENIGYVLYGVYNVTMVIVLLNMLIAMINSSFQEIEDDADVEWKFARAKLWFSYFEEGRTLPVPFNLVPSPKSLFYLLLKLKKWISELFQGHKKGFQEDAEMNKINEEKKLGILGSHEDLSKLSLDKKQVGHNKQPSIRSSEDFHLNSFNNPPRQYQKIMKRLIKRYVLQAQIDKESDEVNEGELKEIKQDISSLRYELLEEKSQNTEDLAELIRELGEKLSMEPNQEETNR
Assay: TRPC6 calcium flux assay (FLIPR, OAG-stimulated calcium influx)
Format: cell-based
Settings: HEK293 cells stably transfected with human TRPC6, read-out: hTRPC6 Potency
How it was run: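 IC50 derived by plotting background-corrected peak fluorescence (180 s window, normalized to OAG-triggered signal vs buffer) against dose. Stable human TRPC6 HEK293 line was dye-loaded, exposed to compound 25 min, then challenged with 50 uM final OAG in 2 mM Ca2+ HEPES buffer pH 7.2, 0.5% DMSO.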

Row | SMILES | IC50 [nM]
1 | N[C@@H]1CN(c2nc3cc(F)c(F)cc3n2Cc2ccc(F)cc2Cl)CC[C@H]1F [Example 355, (3R,4R)-1-(1-(2-chloro-4-fluorobenzyl)-5,6-difluoro-1H-benzimidazol-2-yl)-4-fluoro-3-piperidinamine] | 37
2 | COc1cccc2c1nc(N1CCC(F)(F)[C@H](N)C1)n2Cc1ccc(C#N)cc1 [Example 410, (R)-4-((2-(3-amino-4,4-difluoropiperidin-1-yl)-4-methoxy-1H-benzo[d]imidazol-1-yl)methyl)benzonitrile] | 10.5
3 | Cc1nc(-c2ccccc2)sc1Cn1c(N2CC[C@@H](F)[C@H](N)C2)nc2ccc(F)cc21 [Example 585, (3R,4R)-4-fluoro-1-(6-fluoro-1-((4-methyl-2-phenylthiazol-5-yl)methyl)-1H-benzo[d]imidazol-2-yl)piperidin-3-amine] | 579
4 | N#Cc1ccc(Cn2c(N3CCC(F)(F)C(N)C3)nc3ccc(F)cc32)cc1 (stereo in doubt) [Example 416, 4-((2-((3R)-3-amino-4,4-difluoro-1-piperidinyl)-6-fluoro-1H-benzimidazo-1-yl)methyl)benzonitrile] | 2.36
5 | COc1ccnc(Cn2c(N3CC[C@@H](F)[C@H](N)C3)nc3cc(F)ccc32)c1 [Example 524, (3R,4R)-4-fluoro-1-(5-fluoro-1-((4-methoxypyridin-2-yl)methyl)-1H-benzo[d]imidazol-2-yl)piperidin-3-amine] | 1490
6 | C[C@H](c1ccc(Cl)cn1)n1c(N2CC[C@@H](F)[C@H](N)C2)nc2cc(F)c(F)cc21 [Example 217, (3R,4R)-1-(1-((R)-1-(5-chloropyridin-2-yl)ethyl)-5,6-difluoro-1H-benzo[d]imidazol-2-yl)-4-fluoropiperidin-3-amine hydrochloride] | 68.7
7 | N#Cc1cc(F)cc2c1nc(N1CC[C@@H](F)[C@H](N)C1)n2Cc1ncc(Cl)cn1 [Example 31, 2-((3R,4R)-3-amino-4-fluoropiperidin-1-yl)-1-((5-chloropyrimidin-2-yl)methyl)-6-fluoro-1H-benzo[d]imidazole-4-carbonitrile] | 0.476
8 | N#Cc1ccc(Cn2c(N3CCC[C@@H](N)C3)nc3ccccc32)cn1 [Example 292, (R)-5-((2-(3-aminopiperidin-1-yl)-1H-benzo[d]imidazol-1-yl)methyl)picolinonitrile 2,2,2-trifluoroacetate] | 62.5
9 | N[C@@H]1CN(c2nc3cc(F)c(F)cc3n2Cc2cccc3ncccc23)CC[C@H]1F [Example 260, (3R,4R)-1-(5,6-difluoro-1-(5-quinolinylmethyl)-1H-benzimidazol-2-yl)-4-fluoro-3-piperidinamine] | 376
10 | N#Cc1ccc(Cn2c(N3C[C@@H]4C[C@]4(CN)C3)nc3ccccc32)cc1 [Example 183, 4-((2-((1S,5R)-1-(aminomethyl)-3-azabicyclo[3.1.0]hexan-3-yl)-1H-benzo[d]imidazol-1-yl)methyl)benzonitrile] | 655
11 | CO[C@H]1CCN(c2nc3ccc(F)cc3n2Cc2ccc(C#N)cn2)C[C@H]1N [Example 463, 6-((2-((3R,4S)-3-amino-4-methoxypiperidin-1-yl)-6-fluoro-1H-benzo[d]imidazol-1-yl)methyl)nicotinonitrile] | 33.9
12 | CN[C@H]1CCCN(c2nc3ccccc3n2Cc2ccc(Cl)cn2)C1 [Example 254, (3S)-1-(1-((5-chloro-2-pyridinyl)methyl)-1H-benzimidazol-2-yl)-N-methyl-3-piperidinamine] | 73.9
13 | N#Cc1ccc(Cn2c(N3CC[C@H](F)[C@H](N)C3)nc3cc(Cl)c(Cl)cc32)nc1 [Example 82, 6-((2-((3R,4S)-3-amino-4-fluoropiperidin-1-yl)-5,6-dichloro-1H-benzo[d]imidazol-1-yl)methyl)nicotinonitrile hydrochloride] | 0.504
14 | Cc1cc2nc(N3CC[C@@H](F)[C@H](N)C3)n(Cc3ccc(C#N)cn3)c2cc1C [Example 44] | 0.952
15 | N#Cc1ccccc1Cn1c(N2CCC[C@@H](N)C2)nc2ccccc21 [Example 372, (R)-2-((2-(3-aminopiperidin-1-yl)-1H-benzo[d]imidazol-1-yl)methyl)benzonitrile] | 14100
16 | N[C@@H]1CN(c2nc3cc(F)c(F)cc3n2CC(=O)N2CCC(C(=O)N3CCCCC3)CC2)CC[C@H]1F [Example 536, 2-(2-((3R,4R)-3-amino-4-fluoropiperidin-1-yl)-5,6-difluoro-1H-benzo[d]imidazol-1-yl)-1-(4-(piperidine-1-carbonyl)piperidin-1-yl)ethan-1-one] | > 3750
17 | CS(=O)(=O)c1ccc(Cn2c(N3CC[C@@H](F)[C@H](N)C3)nc3c(F)cc(F)cc32)nc1 [Example 556, (3R,4R)-1-(4,6-difluoro-1-((5-(methylsulfonyl)pyridin-2-yl)methyl)-1H-benzo[d]imidazol-2-yl)-4-fluoropiperidin-3-amine] | 11.9
18 | COc1ccc2nc(N3CC[C@@H](F)[C@H](N)C3)n(CC(=O)N(C)C)c2c1 [Example 448, 2-(2-((3R,4R)-3-amino-4-fluoropiperidin-1-yl)-6-methoxy-1H-benzo[d]imidazol-1-yl)-N,N-dimethylacetamide] | 123
19 | N[C@@H]1CN(c2nc3cc(F)c(F)cc3n2Cc2noc(C3CC3)n2)CC[C@H]1F [Example 578, (3R,4R)-1-(1-((5-cyclopropyl-1,2,4-oxadiazol-3-yl)methyl)-5,6-difluoro-1H-benzo[d]imidazol-2-yl)-4-fluoropiperidin-3-amine] | 251
20 | N[C@@H]1CN(c2nc3cc(F)c(F)cc3n2CC(=O)N2CCN3C(=O)OCC3C2)CC[C@H]1F (stereo partly drawn) [Example 659, 7-(2-(2-((3R,4R)-3-amino-4-fluoropiperidin-1-yl)-5,6-difluoro-1H-benzo[d]imidazol-1-yl)acetyl)tetrahydro-1H-oxazolo[3,4-a]pyrazin-3(5H)-one] | > 3750
21 | N#Cc1ccc(Cn2c(N3C[C@@H]4CC[C@H](N)[C@@H]4C3)nc3ccccc32)nc1 [Example 77, 6-((2-((3aS,4S,6aR)-4-aminohexahydrocyclopenta[c]pyrrol-2(1H)-yl)-1H-benzo[d]imidazol-1-yl)methyl)nicotinonitrile hydrochloride] | 10.9
22 | N#Cc1ccc(Cn2c(N3CCC(F)(F)[C@H](N)C3)nc3ccc(C#N)cc32)cc1 [Example 160, 2-((3R)-3-amino-4,4-difluoro-1-piperidinyl)-1-(4-cyanobenzyl)-1H-benzimidazole-6-carbonitrile] | 14.2
23 | N#Cc1ccc(Cn2c(N3CCC(F)(F)[C@H](N)C3)nc3cc(C#N)ccc32)nc1 [Example 56, (R)-2-(3-amino-4,4-difluoropiperidin-1-yl)-1-((5-cyanopyridin-2-yl)methyl)-1H-benzo[d]imidazole-5-carbonitrile] | 13.5
24 | CC1(C)COCCN1C(=O)Cn1c(N2CC[C@@H](F)[C@H](N)C2)nc2ccc(F)cc21 [Example 687, 2-(2-((3R,4R)-3-amino-4-fluoropiperidin-1-yl)-6-fluoro-1H-benzo[d]imidazol-1-yl)-1-(3,3-dimethylmorpholino)ethan-1-one] | 2080
25 | N[C@@H]1CCCN(c2nc3ccccc3n2Cc2ccc(Cl)cc2Cl)C1 [Example 395, (R)-1-(1-(2,4-dichlorobenzyl)-1H-benzo[d]imidazol-2-yl)piperidin-3-amine] | 1120

Source: patent US11332459B2 (TEIJIN PHARMA LIMITED, priority 2017, dated 2022)
